One experiment has as its target SUMO-activating enzyme (Homo sapiens, UniProt Q9UBT2). In words: inhibitors of in vitro SUMOylation cascade, primary screen, biochemical, HTRF, uHTS (AID 2006). The experiment is classed as protein-complex assay. For orientation: Time-resolved FRET reads energy transfer from a long-lived donor to a nearby acceptor.
A further experiment deals with T1, Hexokinase HKDC1 (Homo sapiens, UniProt Q2TB90).
T1 sequence (Q2TB90 whole entry): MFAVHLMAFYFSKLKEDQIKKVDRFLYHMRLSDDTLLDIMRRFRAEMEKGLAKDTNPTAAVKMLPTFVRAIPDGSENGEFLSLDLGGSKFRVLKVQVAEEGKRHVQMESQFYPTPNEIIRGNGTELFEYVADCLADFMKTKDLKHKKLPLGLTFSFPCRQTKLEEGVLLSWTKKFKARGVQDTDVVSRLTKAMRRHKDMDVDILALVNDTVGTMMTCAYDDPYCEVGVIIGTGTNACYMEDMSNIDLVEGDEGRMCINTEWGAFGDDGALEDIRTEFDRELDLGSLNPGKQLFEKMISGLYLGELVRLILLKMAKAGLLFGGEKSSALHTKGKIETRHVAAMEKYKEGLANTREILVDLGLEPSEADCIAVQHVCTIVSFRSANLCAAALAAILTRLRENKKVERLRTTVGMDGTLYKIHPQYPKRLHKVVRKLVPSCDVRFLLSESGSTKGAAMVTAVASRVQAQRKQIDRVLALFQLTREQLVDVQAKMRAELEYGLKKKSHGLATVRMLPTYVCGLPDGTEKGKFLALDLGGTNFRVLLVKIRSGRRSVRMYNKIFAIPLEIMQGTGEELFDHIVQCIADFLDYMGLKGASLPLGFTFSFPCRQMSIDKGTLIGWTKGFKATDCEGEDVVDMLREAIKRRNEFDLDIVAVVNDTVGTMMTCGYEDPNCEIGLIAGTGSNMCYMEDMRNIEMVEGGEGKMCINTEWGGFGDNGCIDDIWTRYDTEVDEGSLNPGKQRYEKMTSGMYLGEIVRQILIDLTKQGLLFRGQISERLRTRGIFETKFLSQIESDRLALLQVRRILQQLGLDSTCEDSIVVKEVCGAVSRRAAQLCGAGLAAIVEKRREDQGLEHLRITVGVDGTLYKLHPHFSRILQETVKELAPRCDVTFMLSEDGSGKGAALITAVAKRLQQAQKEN
In words: HKDC1 hexokinase inhibitors, SAR follow-up, biochemical, set 2 (AID 588355). The experiment is classed as functional.

Experiment [1] concerns the target T2, Replicative DNA helicase DnaB (Mycobacterium tuberculosis, UniProt P9WMR3).
T2 sequence (P9WMR3 whole entry): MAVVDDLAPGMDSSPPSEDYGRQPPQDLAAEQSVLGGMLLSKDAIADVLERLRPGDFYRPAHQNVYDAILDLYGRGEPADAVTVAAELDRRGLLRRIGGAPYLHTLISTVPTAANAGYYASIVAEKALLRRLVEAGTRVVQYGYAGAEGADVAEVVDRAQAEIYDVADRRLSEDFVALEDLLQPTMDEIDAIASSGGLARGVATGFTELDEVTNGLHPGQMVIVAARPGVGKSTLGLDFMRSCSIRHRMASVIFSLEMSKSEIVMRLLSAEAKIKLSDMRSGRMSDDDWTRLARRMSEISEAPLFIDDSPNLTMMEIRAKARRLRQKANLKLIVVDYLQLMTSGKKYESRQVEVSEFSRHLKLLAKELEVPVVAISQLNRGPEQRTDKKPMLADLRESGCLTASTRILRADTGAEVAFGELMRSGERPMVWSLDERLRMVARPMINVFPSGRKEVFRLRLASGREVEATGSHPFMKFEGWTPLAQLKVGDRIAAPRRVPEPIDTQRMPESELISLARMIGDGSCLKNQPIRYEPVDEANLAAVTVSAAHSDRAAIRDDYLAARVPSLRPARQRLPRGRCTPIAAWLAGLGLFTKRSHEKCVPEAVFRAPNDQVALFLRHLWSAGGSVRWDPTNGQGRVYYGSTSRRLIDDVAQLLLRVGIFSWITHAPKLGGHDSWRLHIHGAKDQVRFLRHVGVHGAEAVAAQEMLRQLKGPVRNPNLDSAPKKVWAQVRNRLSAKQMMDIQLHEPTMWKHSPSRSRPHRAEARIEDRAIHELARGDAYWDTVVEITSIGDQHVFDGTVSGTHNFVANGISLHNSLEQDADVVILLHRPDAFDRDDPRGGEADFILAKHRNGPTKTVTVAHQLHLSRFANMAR
In words: DnaB intein splicing inhibitors, dose response, biochemical, cell-free fluorescence (AID 449749). The experiment is classed as functional.

The target of experiment [2] is Protein kinase C delta type (Homo sapiens, UniProt Q05655). The experiment is classed as functional.
Chain of Protein kinase C delta type (Q05655 whole entry): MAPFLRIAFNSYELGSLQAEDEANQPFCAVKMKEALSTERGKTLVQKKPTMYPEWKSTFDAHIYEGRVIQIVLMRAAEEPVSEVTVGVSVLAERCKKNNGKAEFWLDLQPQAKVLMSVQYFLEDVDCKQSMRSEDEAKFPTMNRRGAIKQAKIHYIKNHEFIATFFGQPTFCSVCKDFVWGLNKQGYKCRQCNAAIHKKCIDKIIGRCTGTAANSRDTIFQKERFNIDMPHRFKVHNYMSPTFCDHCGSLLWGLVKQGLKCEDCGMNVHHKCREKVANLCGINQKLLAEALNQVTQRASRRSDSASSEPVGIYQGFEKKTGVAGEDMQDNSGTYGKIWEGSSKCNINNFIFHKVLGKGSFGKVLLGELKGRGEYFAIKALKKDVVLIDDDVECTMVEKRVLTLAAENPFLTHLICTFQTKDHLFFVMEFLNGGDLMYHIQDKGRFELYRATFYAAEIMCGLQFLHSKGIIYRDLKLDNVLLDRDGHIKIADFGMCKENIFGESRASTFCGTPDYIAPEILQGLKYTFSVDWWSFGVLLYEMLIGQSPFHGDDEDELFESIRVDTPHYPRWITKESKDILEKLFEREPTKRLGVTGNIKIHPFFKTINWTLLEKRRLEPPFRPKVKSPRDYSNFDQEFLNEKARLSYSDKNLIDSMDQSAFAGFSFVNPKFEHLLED
Experiment [3] concerns the target Serine/threonine-protein kinase pim-1 (Homo sapiens, UniProt P11309). The class given is functional.
In experiment [4] the target is Serine/threonine-protein kinase PLK3 (Homo sapiens, UniProt Q9H4B4). The experiment is classed as functional.
In experiment [5] the target is Glycogen synthase kinase-3 alpha (Homo sapiens, UniProt P49840). The experiment is classed as functional.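 Note: GSK3A result taken from a broad kinome-wide kinase panel.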
Chain of Glycogen synthase kinase-3 alpha (P49840 whole entry): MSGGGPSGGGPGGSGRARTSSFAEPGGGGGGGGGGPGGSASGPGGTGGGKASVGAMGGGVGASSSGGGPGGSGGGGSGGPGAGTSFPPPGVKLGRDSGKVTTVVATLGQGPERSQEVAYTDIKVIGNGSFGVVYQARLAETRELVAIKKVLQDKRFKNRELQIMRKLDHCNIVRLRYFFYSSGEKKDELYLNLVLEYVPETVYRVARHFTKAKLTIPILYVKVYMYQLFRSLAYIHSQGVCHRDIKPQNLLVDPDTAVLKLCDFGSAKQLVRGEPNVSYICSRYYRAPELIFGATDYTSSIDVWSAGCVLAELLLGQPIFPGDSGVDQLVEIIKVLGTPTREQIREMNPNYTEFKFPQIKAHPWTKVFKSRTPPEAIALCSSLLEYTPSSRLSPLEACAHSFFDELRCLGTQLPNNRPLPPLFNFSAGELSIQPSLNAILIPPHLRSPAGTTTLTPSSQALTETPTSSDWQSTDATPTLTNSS
In experiment [6] the target is Ribosomal protein S6 kinase alpha-3 (Homo sapiens, UniProt P51812). The class given is functional.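 Note: measured within a kinome-wide profiling panel.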
For experiment [7], the target named is RAC-gamma serine/threonine-protein kinase (Homo sapiens, UniProt Q9Y243). The experiment is classed as functional.
Chain of RAC-gamma serine/threonine-protein kinase (Q9Y243 whole entry): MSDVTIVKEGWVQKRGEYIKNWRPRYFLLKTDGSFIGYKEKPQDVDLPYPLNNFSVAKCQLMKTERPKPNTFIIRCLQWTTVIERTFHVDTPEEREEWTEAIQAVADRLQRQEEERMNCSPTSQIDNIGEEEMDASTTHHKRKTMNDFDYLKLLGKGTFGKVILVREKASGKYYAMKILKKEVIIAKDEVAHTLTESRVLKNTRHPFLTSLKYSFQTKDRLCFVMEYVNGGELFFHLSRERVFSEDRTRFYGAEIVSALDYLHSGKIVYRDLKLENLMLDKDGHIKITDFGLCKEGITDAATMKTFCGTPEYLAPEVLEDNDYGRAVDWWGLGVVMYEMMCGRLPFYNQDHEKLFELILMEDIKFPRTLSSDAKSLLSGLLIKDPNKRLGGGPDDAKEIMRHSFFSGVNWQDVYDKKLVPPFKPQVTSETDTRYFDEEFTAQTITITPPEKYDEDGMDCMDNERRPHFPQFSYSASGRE
The target of experiment [8] is Serine/threonine-protein kinase BRSK1 (Homo sapiens, UniProt Q8TDC3). The experiment is classed as functional.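 Note: measured within a kinome-wide kinase panel, with the target listed as KIAA1811.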
Chain of Serine/threonine-protein kinase BRSK1 (Q8TDC3 whole entry): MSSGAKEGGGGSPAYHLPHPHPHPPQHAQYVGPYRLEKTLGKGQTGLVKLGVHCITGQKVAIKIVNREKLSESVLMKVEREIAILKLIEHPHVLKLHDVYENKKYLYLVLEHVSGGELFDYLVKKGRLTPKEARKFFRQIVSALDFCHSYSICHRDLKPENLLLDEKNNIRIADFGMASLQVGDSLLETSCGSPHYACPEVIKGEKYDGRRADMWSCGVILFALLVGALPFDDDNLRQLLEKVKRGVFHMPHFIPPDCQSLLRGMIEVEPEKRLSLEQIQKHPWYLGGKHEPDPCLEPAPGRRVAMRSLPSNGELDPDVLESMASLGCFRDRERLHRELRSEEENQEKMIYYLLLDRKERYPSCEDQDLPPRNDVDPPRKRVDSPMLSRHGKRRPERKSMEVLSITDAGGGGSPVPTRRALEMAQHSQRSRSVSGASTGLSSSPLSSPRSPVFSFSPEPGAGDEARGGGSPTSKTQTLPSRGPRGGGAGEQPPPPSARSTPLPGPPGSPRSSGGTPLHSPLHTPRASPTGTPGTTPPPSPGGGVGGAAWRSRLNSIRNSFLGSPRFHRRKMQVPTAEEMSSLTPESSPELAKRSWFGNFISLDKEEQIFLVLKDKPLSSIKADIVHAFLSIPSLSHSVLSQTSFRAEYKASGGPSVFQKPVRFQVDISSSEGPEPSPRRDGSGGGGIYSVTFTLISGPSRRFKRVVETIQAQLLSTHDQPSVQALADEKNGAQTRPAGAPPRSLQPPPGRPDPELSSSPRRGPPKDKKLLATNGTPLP
Experiment [9] concerns the target Testis-specific serine/threonine-protein kinase 2 (Homo sapiens, UniProt Q96PF2). The experiment is classed as functional.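 Note: part of the Navigating the Kinome panel, target entry STK22B.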
Experiment [10] deals with MAP kinase-interacting serine/threonine-protein kinase 2 (Homo sapiens, UniProt Q9HBH9). The class given is functional.
Chain of MAP kinase-interacting serine/threonine-protein kinase 2 (Q9HBH9 whole entry): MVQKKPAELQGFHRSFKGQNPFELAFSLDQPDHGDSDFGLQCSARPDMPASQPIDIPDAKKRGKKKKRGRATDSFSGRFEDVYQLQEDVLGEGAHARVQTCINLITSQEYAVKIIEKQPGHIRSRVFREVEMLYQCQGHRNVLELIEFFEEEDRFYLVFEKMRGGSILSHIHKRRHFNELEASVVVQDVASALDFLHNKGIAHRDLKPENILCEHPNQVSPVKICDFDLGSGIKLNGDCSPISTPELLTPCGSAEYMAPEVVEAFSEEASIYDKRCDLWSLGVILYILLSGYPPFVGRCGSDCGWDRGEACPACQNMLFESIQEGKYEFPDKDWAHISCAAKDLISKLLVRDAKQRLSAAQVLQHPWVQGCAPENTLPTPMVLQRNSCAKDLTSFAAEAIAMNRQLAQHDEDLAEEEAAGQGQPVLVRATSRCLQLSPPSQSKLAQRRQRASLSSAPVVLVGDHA
Experiment [11] deals with ALK tyrosine kinase receptor (Homo sapiens, UniProt Q9UM73). The experiment is classed as functional.
The target in experiment [12] is Testis-specific serine/threonine-protein kinase 1 (Homo sapiens, UniProt Q9BXA7). The experiment is classed as functional.
Chain of Testis-specific serine/threonine-protein kinase 1 (Q9BXA7 whole entry): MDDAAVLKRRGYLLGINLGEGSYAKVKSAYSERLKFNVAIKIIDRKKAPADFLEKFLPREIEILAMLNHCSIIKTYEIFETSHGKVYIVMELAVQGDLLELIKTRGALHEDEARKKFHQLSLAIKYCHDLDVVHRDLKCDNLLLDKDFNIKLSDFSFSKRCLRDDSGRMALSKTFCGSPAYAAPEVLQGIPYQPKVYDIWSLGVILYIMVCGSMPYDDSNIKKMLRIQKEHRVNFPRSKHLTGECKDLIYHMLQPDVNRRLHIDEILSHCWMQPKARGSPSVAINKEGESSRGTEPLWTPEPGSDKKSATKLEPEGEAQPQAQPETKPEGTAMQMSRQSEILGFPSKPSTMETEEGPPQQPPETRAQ
The target of experiment [13] is Maternal embryonic leucine zipper kinase (Homo sapiens, UniProt Q14680). The class given is functional.
Experiment [14] deals with Tyrosine-protein kinase Fer (Homo sapiens, UniProt P16591). The class given is functional.
Experiment [15] has as its target Tyrosine-protein kinase BTK (Homo sapiens, UniProt Q06187). The class given is functional.
Experiment [16] addresses Mitogen-activated protein kinase kinase kinase kinase 2 (Homo sapiens, UniProt Q12851). The class given is functional.
Experiment [17] concerns the target Dual specificity tyrosine-phosphorylation-regulated kinase 4 (Homo sapiens, UniProt Q9NR20). The class given is functional.
In experiment [18] the target is Casein kinase I isoform alpha (Homo sapiens, UniProt P48729). The experiment is classed as functional.
Chain of Casein kinase I isoform alpha (P48729 whole entry, canonical isoform): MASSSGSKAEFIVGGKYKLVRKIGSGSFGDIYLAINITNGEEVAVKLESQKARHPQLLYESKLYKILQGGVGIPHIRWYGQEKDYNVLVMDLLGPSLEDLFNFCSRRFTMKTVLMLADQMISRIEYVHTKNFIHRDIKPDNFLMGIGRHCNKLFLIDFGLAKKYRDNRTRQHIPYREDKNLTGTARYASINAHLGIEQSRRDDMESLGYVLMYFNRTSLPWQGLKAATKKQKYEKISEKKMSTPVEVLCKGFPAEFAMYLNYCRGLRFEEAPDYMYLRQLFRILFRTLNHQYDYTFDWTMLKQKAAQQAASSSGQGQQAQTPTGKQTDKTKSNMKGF

Active and inactive are the calls of the source. Bounds are passed on as bounds.

Chain of Testis-specific serine/threonine-protein kinase 2 (Q96PF2 whole entry): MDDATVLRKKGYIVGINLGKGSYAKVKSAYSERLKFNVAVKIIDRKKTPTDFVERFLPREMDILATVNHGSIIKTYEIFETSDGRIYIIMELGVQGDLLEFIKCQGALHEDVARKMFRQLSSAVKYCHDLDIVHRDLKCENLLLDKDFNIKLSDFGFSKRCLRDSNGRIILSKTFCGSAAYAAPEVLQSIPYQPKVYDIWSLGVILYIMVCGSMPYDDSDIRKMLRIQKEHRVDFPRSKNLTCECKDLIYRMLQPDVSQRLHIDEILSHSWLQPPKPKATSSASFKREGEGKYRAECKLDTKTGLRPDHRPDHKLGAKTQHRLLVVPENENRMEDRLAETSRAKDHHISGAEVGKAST
Chain of Dual specificity tyrosine-phosphorylation-regulated kinase 4 (Q9NR20 whole entry, canonical isoform): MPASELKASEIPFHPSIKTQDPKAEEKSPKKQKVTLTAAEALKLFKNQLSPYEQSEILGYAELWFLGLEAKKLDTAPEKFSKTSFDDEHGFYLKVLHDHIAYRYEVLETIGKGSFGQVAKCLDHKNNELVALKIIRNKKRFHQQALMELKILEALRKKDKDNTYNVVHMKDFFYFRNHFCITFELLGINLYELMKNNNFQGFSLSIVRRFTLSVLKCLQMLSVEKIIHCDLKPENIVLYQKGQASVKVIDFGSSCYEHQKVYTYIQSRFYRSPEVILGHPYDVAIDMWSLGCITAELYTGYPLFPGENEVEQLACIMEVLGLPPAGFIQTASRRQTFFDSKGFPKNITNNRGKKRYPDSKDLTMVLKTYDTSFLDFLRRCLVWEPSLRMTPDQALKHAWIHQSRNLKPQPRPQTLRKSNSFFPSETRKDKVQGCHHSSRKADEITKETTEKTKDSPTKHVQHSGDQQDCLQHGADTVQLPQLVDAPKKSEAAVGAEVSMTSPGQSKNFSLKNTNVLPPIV
Chain of Serine/threonine-protein kinase pim-1 (P11309 whole entry): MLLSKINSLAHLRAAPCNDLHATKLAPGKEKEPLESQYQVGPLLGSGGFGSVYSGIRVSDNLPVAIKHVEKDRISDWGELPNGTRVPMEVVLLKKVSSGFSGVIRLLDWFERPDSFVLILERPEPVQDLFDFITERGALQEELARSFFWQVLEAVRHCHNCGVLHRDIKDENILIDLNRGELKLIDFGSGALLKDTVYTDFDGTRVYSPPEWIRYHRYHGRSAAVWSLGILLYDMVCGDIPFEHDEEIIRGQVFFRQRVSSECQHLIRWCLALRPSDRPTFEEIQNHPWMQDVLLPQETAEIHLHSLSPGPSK

Turning to `CC(=O)NC1C(=O)N(CCN2CCOCC2)c2ccc(Cl)cc21` (stereo not given), the IC50 is 13400 nM (active) at SUMO-activating enzyme and 11500 nM (active) at Hexokinase HKDC1. In addition, the concentration at half-maximal activity (AC50) in experiment [1] is 16600 nM (active).

`Cc1c(C=O)c(O)n2c(nc3ccccc32)c1C#N`: the Ki in experiment [2] is > 7940 nM (inactive); in experiment [3], 158 nM (active); in [4], 794 nM (active); in experiment [5] it was 3980 nM (active); in experiment [6], 5010 nM (active); in experiment [7], > 10000 nM (inactive).

Take `Cc1n[nH]c2cnc(-c3cncc(OCC(N)Cc4cccc(C(F)(F)F)c4)c3)cc12` (stereo not given): the Ki in experiment [8] is 2000 nM (active); in experiment [9], 79.4 nM (active); in experiment [10], 631 nM (active); in experiment [11], > 1260 nM (inactive); in experiment [12], 31.6 nM (active); in [13] it was 15.8 nM (active). In addition, the Ki in experiment [14] was > 1580 nM (inactive); in [15] it was > 1260 nM (inactive); in [16], 63.1 nM (active); in [17], 126 nM (active); in experiment [18], 2510 nM (active).

What is called IC50 is the concentration needed to halve the response being measured. As usually defined, the AC50 is the midpoint of the concentration-response curve, whichever way the signal moves. Broadly, the Ki is the dissociation constant of the complex between target and ligand, obtained from inhibition or displacement.
